Test results from patent EP4623906A1, “OPHTHALMIC FORMULATION COMPRISING PYRIDINE PHENYL COMPOUND, PREPARATION METHOD THEREFOR, AND USE THEREOF” (Zhuhai United Laboratories Co., Ltd., priority 2022, dated 2024).

Experiments:
Type in all cases: physicochemical
[1] = Solubilization trials of compound of formula (IX) with different solubilizing agents, grinding and heating (Examples 1-11)
Procedure: Examples 1-11 were prepared according to the specific processes in Table 1. […]

[2] = Preliminary stability of eye drops with antimicrobial preservatives, in the dark at 25°C and 40°C for 5 days (Examples 52, 55, 56); details: Compound of Formula (IX), 0 h
Procedure: According to the prescription ratio in Table 11, the active compound of formula (IX) was weighed, and dispersed in isopropanol with stirring until the solution was clear. HP-β-CD was slowly added under stirring, until the solution was clear. Purified water in the prescribed ratio was slowly added to the isopropanol solution under stirring, and stirred for 1 hour to obtain a clear solution. The above solution was freeze-dried in a vacuum freeze dryer to obtain a loose white freeze-dried powder. Freeze-dried powder of the inclusion compound was dissolved in a re-dissolving medium, and successively filtered through 0.45 µm and 0.22 µm mixed filter membrane to obtain active compound eye drops, and filled in a sample packaging of 2 mL per bottle, to obtain eye drops.
For multi-dose packaged eye drops, the addition of antimicrobial preservatives is needed to avoid microbial contamination during use. The effects of two antimicrobial preservatives, benzalkonium chloride and chlorhexidine acetate, on prescription stability were investigated through Examples 52, 55, and 56. The preliminary stability of eye drops from Example 52, Example 55, and Example 56 was investigated by placing them in the dark at 25°C and 40°C for 5 days.

[3] = Preliminary compatibility of packaging materials, in the dark at 25°C (Examples 52-54); parameters: unit not given here; details: Compound of Formula (IX) itself
Procedure: Examples 53 and 54 were packaged in low-density polyethylene (PE) pharmaceutical eye drops bottles, brown polyester (PET) pharmaceutical eye drops bottles and ampoules, respectively. They were placed in the dark at 25°C to investigate the preliminary compatibility of the packaging materials.

## CC(C)(O)c1ccc(-c2cnc(C(C)(C)O)c(N)c2)cc1N [Compound of Formula (IX)]
[1]
  Solubility in water: insoluble or almost insoluble
[2]
  Peak at retention time 19.6 min, relative retention time 1.00: 93.14
  Peak at retention time 20.2 min, relative retention time 1.03: 0.16
  Peak at retention time 21.1 min, relative retention time 1.08: 0.39
  Peak at retention time 21.5 min, relative retention time 1.10: 0.41
  Peak at retention time 23.8 min, relative retention time 1.21: 0.11
  Peak at retention time 24.0 min, relative retention time 1.22: 2.41
  Peak at retention time 24.5 min, relative retention time 1.25: 0.50
  Peak at retention time 24.7 min, relative retention time 1.26: 0.25
  Peak at retention time 24.8 min, relative retention time 1.27: 0.12
  Peak at retention time 25.6 min, relative retention time 1.31: 0.09
  Peak at retention time 26.0 min, relative retention time 1.33: 0.15
  Peak at retention time 26.2 min, relative retention time 1.34: 2.15
  Peak at retention time 28.3 min, relative retention time 1.44: 0.13
[3]
  Impurity RRT 0.44: 0.06
  Impurity RRT 1.17: 0.05
  Impurity RRT 1.29: 0.20
  Impurity RRT 1.34: 0.10
  Impurity RRT 1.55: 0.07
  Impurity RRT 1.59: 0.02
  Impurity RRT 1.66: 0.04
  Impurity RRT 1.75: 0.04
  Impurity RRT 1.81: 0.03
  Impurity RRT 1.84: 0.25
  Impurity RRT 1.89: 0.04
  Impurity RRT 1.97: 0.03
  Impurity RRT 2.10: 0.09
  Impurity RRT 2.19: 0.21
  Impurity RRT 2.23: 0.02
  Impurity RRT 2.27: 0.03
  Total impurity: 1.03
